From patent publication US20250230193A1, “CYCLIC COMPOUND HAVING SELECTIVE KRAS INHIBITORY EFFECT ON HRAS AND NRAS” (CHUGAI SEIYAKU KABUSHIKI KAISHA, priority 2022, published 2025)
*1 amine or outer side, *2 acyl side, *3 side chain or, on linkers, in order; H or OH if unused. Where a SMILES comes first, the peptide text is derived from it. Bridges are numbered along the chain shown (N, C = ends). [ ]: non-standard residue; d: D form. The star is where a group is joined. hPhe(3-Cl-4-CF3) = N[C@@H](CCc1ccc(C(F)(F)F)c(Cl)c1)C(=O)O; NPrPhe(4-CF3) = CCCN[C@@H](Cc1ccc(C(F)(F)F)cc1)C(=O)O; NEtAsp = CCN([C@@H](CC(=O)[*:3])C(=O)[*:2])[*:1]; NMeGly(cPent) = CN[C@H](C(=O)O)C1CCCC1; Pro(4,4-F2) = O=C(O)[C@@H]1CC(F)(F)CN1; NMeD = CN[C@@H](CC(=O)O)C(=O)O; NMeL = CN[C@@H](CC(C)C)C(=O)O; NMeNva = CCC[C@H](NC)C(=O)O; Morpholide = C1CN(*)CCO1; NMeA = CN[C@@H](C)C(=O)O; Aze = O=C(O)[C@@H]1CCN1; Ac4c = NC1(C(=O)O)CCC1; Sar = CNCC(=O)O

Assays:
[1] = biological target: GDP-bound NRAS wild-type protein (Homo sapiens, UniProt P01111); experiment: Binding to NRAS by surface plasmon resonance (SPR), Single Cycle Kinetics; details: for NRAS/KRAS (ratio of KD value with respect to NRAS to KD value with respect to KRAS) / NRAS/KRAS (ratio of KD value for NRAS to KD value for KRAS): GDP-bound NRAS wild-type vs GDP-bound KRAS wild-type
GDP-bound NRAS wild-type protein, sequence (P01111 whole entry): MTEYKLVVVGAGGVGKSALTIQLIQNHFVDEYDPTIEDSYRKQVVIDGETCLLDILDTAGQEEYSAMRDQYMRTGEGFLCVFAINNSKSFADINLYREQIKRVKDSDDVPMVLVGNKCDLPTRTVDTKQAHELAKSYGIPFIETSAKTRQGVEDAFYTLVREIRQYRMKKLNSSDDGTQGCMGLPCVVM

[2] = biological target: GDP-bound HRAS wild-type protein (Homo sapiens, UniProt P01112); experiment: Binding to HRAS by surface plasmon resonance (SPR), Single Cycle Kinetics; details: for HRAS/KRAS (ratio of KD value with respect to HRAS to KD value with respect to KRAS) / HRAS/KRAS (ratio of KD value for HRAS to KD value for KRAS): GDP-bound HRAS wild-type vs GDP-bound KRAS wild-type
GDP-bound HRAS wild-type protein, sequence (P01112 whole entry): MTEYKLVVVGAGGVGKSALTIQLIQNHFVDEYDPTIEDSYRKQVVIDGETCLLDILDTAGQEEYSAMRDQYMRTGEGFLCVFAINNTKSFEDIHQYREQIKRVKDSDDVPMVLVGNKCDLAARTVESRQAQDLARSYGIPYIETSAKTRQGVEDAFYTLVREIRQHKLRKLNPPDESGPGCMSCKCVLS

[3] = SPR, GDP-bound wild-type proteins

CCO[C@@H]1C[C@H]2C(=O)NC3(CCC3)C(=O)N(C)[C@@H](C3CCCC3)C(=O)N(C)[C@H](C(=O)N(C)C)CC(=O)N(C)[C@@H](CC)C(=O)N[C@@H]([C@@H](C)CC)C(=O)N(C)CC(=O)N(C)[C@H]3CCCCN(C3=O)[C@@H](Cc3ccc(C(F)(F)F)cc3)C(=O)N(C)CC(=O)N[C@@H](CCc3ccc(C(F)(F)F)c(OC)c3)C(=O)N2C1 [PP0884]
NRAS/KRAS (ratio of KD value with respect to NRAS to KD value with respect to KRAS) ([1]; KD ratio, SPR): C (A compound having a KD ratio of 0.1 or more and less than 3 is denoted as C)
HRAS/KRAS (ratio of KD value with respect to HRAS to KD value with respect to KRAS) ([2]; KD ratio, SPR): C (A compound having a KD ratio of 0.1 or more and less than 3 is denoted as C)

CCO[C@@H]1C[C@H]2C(=O)NC3(CC(C)(C)C3)C(=O)N(C)[C@@H](C(CC)CC)C(=O)N(C)[C@H](C(=O)N(C)C)CC(=O)N(C)[C@H]3CCCCC/C=C/c4ccc(cc4)C[C@@H](C(=O)N(C)CC(=O)N[C@@H](CCc4ccc(Cl)c(Cl)c4)C(=O)N2C1)N1CC/C=C\C[C@@H](C1=O)N(C)C(=O)CN(C)C(=O)[C@H]([C@@H](C)CC)NC3=O [PP3050]
NRAS/KRAS (ratio of KD value with respect to GDP-bound NRAS wild-type protein to KD value with respect to KRAS) [1, 3]: AA (a compound having 20 or more is denoted as AA)
HRAS/KRAS (ratio of KD value with respect to GDP-bound HRAS wild-type protein to KD value with respect to KRAS) [2, 3]: A (a compound having 10 or more and less than 20 is denoted as A)

C#CC[C@H]1C(=O)N[C@@H]([C@@H](C)CC)C(=O)N(C)CC(=O)N(C)[C@H]2C/C=C\CCN(C2=O)[C@@H](Cc2ccc(C(F)(F)F)cc2)C(=O)N(C)CC(=O)N[C@@H](CCc2cc(F)c(C(F)(F)F)c(F)c2)C(=O)N2C[C@H](F)C[C@H]2C(=O)NC2(CC(C)(C)C2)C(=O)N(C)[C@@H](C2CCCC2)C(=O)N(C)[C@H](C(=O)N(C)CCC)CC(=O)N1C [PP1692]
NRAS/KRAS (ratio of KD value for NRAS to KD value for KRAS) ([1]; KD ratio, SPR): AA (a compound having 20 or more is denoted as AA)
HRAS/KRAS (ratio of KD value for HRAS to KD value for KRAS) ([2]; KD ratio, SPR): A (a compound having 10 or more and less than 20 is denoted as A)

CCO[C@@H]1C[C@H]2C(=O)NC(C)(C)C(=O)N(C)[C@@H](C3CCCC3)C(=O)N(CC)[C@H](C(=O)N3CCOCC3)CC(=O)N(C)[C@@H](CC(C)C)C(=O)N[C@@H]([C@@H](C)CC)C(=O)N(C)CC(=O)N(C)[C@H]3CCCCCN(C3=O)[C@@H](Cc3ccc(C(F)(F)F)cc3)C(=O)N(C)CC(=O)N[C@@H](CCc3cc(F)c(C(F)(F)F)c(F)c3)C(=O)N2C1 [PP0958]
NRAS/KRAS (ratio of KD value with respect to NRAS to KD value with respect to KRAS) ([1]; KD ratio, SPR): B (a compound having 3 or more and less than 10 is denoted as B)
HRAS/KRAS (ratio of KD value with respect to HRAS to KD value with respect to KRAS) ([2]; KD ratio, SPR): B (a compound having 3 or more and less than 10 is denoted as B)

CCC[C@H]1C(=O)N[C@@H]([C@@H](C)CC)C(=O)N(C)[C@@H](C)C(=O)N2CC[C@H]2C(=O)N(CCC)[C@@H](Cc2ccc(C(F)(F)F)cc2)C(=O)N(C)CC(=O)N[C@@H](CCc2ccc(C(F)(F)F)c(Cl)c2)C(=O)N2CCC[C@H]2C(=O)NC2(CCC2)C(=O)N(C)[C@@H](C2CCCC2)C(=O)N(CC)[C@H](C(=O)N2CCOCC2)CC(=O)N1C [PP1955] ([NMeNva]I[NMeA][Aze][NPrPhe(4-CF3)][Sar][hPhe(3-Cl-4-CF3)]P[Ac4c][NMeGly(cPent)][NEtAsp]-Morpholide; lactam N-11)
NRAS/KRAS (ratio of KD value for NRAS to KD value for KRAS) ([1]; KD ratio, SPR): C (A compound having a KD ratio of 0.1 or more and less than 3 is denoted as C)
HRAS/KRAS (ratio of KD value for HRAS to KD value for KRAS) ([2]; KD ratio, SPR): B (a compound having 3 or more and less than 10 is denoted as B)

CCCN1C(=O)[C@@H]2CCN2C(=O)[C@H](C)N(C)C(=O)[C@H]([C@@H](C)CC)NC(=O)[C@H](CC(C)C)N(C)C(=O)C[C@@H](C(=O)N(C)C)N(C)C(=O)[C@H](C2CCCC2)N(C)C(=O)C2(CCC2)NC(=O)[C@@H]2CC(F)(F)CN2C(=O)[C@H](CCc2ccc(C(F)(F)F)c(Cl)c2)NC(=O)CN(C)C(=O)[C@@H]1Cc1ccc(C(F)(F)F)cc1 [PP0437] ([NMeL]I[NMeA][Aze][NPrPhe(4-CF3)][Sar][hPhe(3-Cl-4-CF3)][Pro(4,4-F2)][Ac4c][NMeGly(cPent)][NMeD]-NMe2; lactam N-11)
NRAS/KRAS (ratio of KD value with respect to GDP-bound NRAS wild-type protein to KD value with respect to KRAS) ([1]; SPR): C (A compound having a KD ratio of 0.1 or more and less than 3 is denoted as C)
HRAS/KRAS (ratio of KD value with respect to GDP-bound HRAS wild-type protein to KD value with respect to KRAS) ([2]; SPR): B (a compound having 3 or more and less than 10 is denoted as B)

CC[C@H](C)[C@@H]1NC(=O)[C@H](CC(C)C)N(C)C(=O)C[C@@H](C(=O)N2CCOCC2)N(C)C(=O)[C@H](C2CCCC2)N(C)C(=O)C2(CCCC2)NC(=O)[C@@H]2C[C@H](OC)CN2C(=O)[C@H](CCc2cc(F)c(C(F)(F)F)c(F)c2)NC(=O)CN(C)C(=O)[C@H](Cc2ccc(C(F)(F)F)cc2)N2CCCCC[C@@H](C2=O)N(C)C(=O)CN(C)C1=O [PP0495]
NRAS/KRAS (ratio of KD value with respect to GDP-bound NRAS wild-type protein to KD value with respect to KRAS) ([1]; SPR): A (a compound having 10 or more and less than 20 is denoted as A)
HRAS/KRAS (ratio of KD value with respect to GDP-bound HRAS wild-type protein to KD value with respect to KRAS) ([2]; SPR): B (a compound having 3 or more and less than 10 is denoted as B)

CCO[C@@H]1C[C@H]2C(=O)NC3(CCC3)C(=O)N(C)[C@@H](C3CCCC3)C(=O)N(C)[C@H](C(=O)N3CCOCC3)CC(=O)N(C)[C@@H](CCOC)C(=O)N[C@@H]([C@@H](C)CC)C(=O)N(C)CC(=O)N(C)[C@H]3CCCCCN(C3=O)[C@@H](Cc3ccc(F)cc3)C(=O)N(C)CC(=O)N[C@@H](CCc3cc(F)c(C(F)(F)F)c(F)c3)C(=O)N2C1 [PP1180]
NRAS/KRAS (ratio of KD value with respect to NRAS to KD value with respect to KRAS) ([1]; KD ratio, SPR): B (a compound having 3 or more and less than 10 is denoted as B)
HRAS/KRAS (ratio of KD value with respect to HRAS to KD value with respect to KRAS) ([2]; KD ratio, SPR): B (a compound having 3 or more and less than 10 is denoted as B)

CCO[C@@H]1C[C@H]2C(=O)NC3(CC(C)(C)C3)C(=O)N(C)[C@@H](C3CCCC3)C(=O)N(C)[C@H](C(=O)N(C)CC)CC(=O)N(C)[C@H]3CCC/C=C/c4ccc(cc4)C[C@@H](C(=O)N(C)CC(=O)N[C@@H](CCc4ccc(Cl)c(Cl)c4)C(=O)N2C1)N1CC/C=C\C[C@@H](C1=O)N(C)C(=O)CN(C)C(=O)[C@H]([C@@H](C)CC)NC3=O [PP2577]
NRAS/KRAS (ratio of KD value with respect to GDP-bound NRAS wild-type protein to KD value with respect to KRAS) ([1]; class symbols): A (a compound having 10 or more and less than 20 is denoted as A)
HRAS/KRAS (ratio of KD value with respect to GDP-bound HRAS wild-type protein to KD value with respect to KRAS) ([2]; class symbols): A (a compound having 10 or more and less than 20 is denoted as A)

CCC[C@H]1C(=O)N[C@@H]([C@@H](C)CC)C(=O)N(C)CC(=O)N(C)[C@H]2C/C=C\CCN(C2=O)[C@@H](Cc2ccc(C)cc2)C(=O)N(C)CC(=O)N[C@@H](CCc2ccc(C(F)(F)F)c(Cl)c2)C(=O)N2C[C@H](OCC)C[C@H]2C(=O)NC2(CC(C)(C)C2)C(=O)N(C)[C@@H](CC(C)(C)C)C(=O)N(C)[C@H](C(=O)N(C)C)CC(=O)N1C [PP2230]
NRAS/KRAS (ratio of KD value with respect to NRAS to KD value with respect to KRAS) ([1]; SPR): A (a compound having 10 or more and less than 20 is denoted as A)
HRAS/KRAS (ratio of KD value with respect to HRAS to KD value with respect to KRAS) ([2]; SPR): A (a compound having 10 or more and less than 20 is denoted as A)

CC[C@H](C)[C@@H]1NC(=O)[C@H](COC)N(C)C(=O)C[C@@H](C(=O)N(C)C)N(C)C(=O)[C@H](C2CCCC2)N(C)C(=O)C2(CC(C)(C)C2)NC(=O)[C@@H]2C[C@@H](OC3CCCC3)CN2C(=O)[C@H](CCc2cc(F)c(C(F)(F)F)c(F)c2)NC(=O)CN(C)C(=O)[C@H](Cc2ccc(C)cc2)N2CC/C=C\C[C@@H](C2=O)N(C)C(=O)CN(C2CC2)C1=O [PP2626]
NRAS/KRAS (ratio of KD value with respect to GDP-bound NRAS wild-type protein to KD value with respect to KRAS) ([1]; class symbols): A (a compound having 10 or more and less than 20 is denoted as A)
HRAS/KRAS (ratio of KD value with respect to GDP-bound HRAS wild-type protein to KD value with respect to KRAS) ([2]; class symbols): A (a compound having 10 or more and less than 20 is denoted as A)
